These results are taken from patent US20040120954A1, “Regulation of mt1-mmp activity” (priority 2000, published 2004).

The test system of the experiment is HT1080 cells. Put plainly: Activation of endogenous proMMP-2 in HT1080 cells (zymography, Western blotting). The class given is cell-based, human. On the procedure:
FIG. 31: In regard to the efficacy of MT1PEX-F on the matrigel invasive action of HT1080 cells, HT1080 cells were transfected with the stable expression plasmids for MT1PEX-F and the empty vector (Mock). Hygromycin resistant cells were collected and re-seeded. The culture medium was changed to a serum-free medium in the presence or absence of BB94, and the cells were further cultured. The culture media and the cell lysates were analyzed by gelatin zymography and Western blotting using an anti-MT1PEX antibody, respectively.
HT1080 cells are known to express MT1-MMP and MMP-2 endogenously. Thus, the efficacy of MT1PEX-F expression on the activation of endogenous proMMF-2 in HT1080 cells was next examined. The cells were transfected with a plasmid for MT1PEX-F or an empty vector bearing the hygromycin-resistant gene. The culture medium from the hygromycin-resistant cells was analyzed for produced MMP-2 by zymography. […] Co-expression of endogenous MT1-MMP and MT1PEX-F clearly indicated the co-localization of both molecules at the edge of the cells (FIG. 32).

On to “MT1PEX-F: Catalytic domain-deleted FLAG-tagged MT1-MMP (Δ Tyr112-Pro312), expressed by transfection”, for which the “effect on expression and processing of endogenous MT1-MMP” value (HT1080 cell lysates, Western blotting (FIG. 31)) is “did not affect the expression and processing of endogenous MT1-MMP”. For the setting “hygromycin-resistant HT1080 cells, serum-free medium (FIG. 31)”, the “activation of endogenous proMMP-2” value is given as “did not effectively activate proMMP-2”.
